Experimental data reported in ChEMBL document CHEMBL1143181, “2-Aminoresorcinol is a potent alpha-glucosidase inhibitor” (Bioorg Med Chem Lett, 2008).
pIC50, pKi: −log10 of the molar value.

Tests used:
[1] = molecular target: Sucrase-isomaltase, intestinal (Rattus norvegicus) (UniProt P23739); experiment: Inhibition of rat intestinal isomaltase at 500 uM
[2] = molecular target: T1, Sucrase-isomaltase, intestinal (Rattus norvegicus, UniProt P23739); experiment: Inhibition of rat intestinal sucrase
T1 sequence (P23739 1-1013 limits assumed): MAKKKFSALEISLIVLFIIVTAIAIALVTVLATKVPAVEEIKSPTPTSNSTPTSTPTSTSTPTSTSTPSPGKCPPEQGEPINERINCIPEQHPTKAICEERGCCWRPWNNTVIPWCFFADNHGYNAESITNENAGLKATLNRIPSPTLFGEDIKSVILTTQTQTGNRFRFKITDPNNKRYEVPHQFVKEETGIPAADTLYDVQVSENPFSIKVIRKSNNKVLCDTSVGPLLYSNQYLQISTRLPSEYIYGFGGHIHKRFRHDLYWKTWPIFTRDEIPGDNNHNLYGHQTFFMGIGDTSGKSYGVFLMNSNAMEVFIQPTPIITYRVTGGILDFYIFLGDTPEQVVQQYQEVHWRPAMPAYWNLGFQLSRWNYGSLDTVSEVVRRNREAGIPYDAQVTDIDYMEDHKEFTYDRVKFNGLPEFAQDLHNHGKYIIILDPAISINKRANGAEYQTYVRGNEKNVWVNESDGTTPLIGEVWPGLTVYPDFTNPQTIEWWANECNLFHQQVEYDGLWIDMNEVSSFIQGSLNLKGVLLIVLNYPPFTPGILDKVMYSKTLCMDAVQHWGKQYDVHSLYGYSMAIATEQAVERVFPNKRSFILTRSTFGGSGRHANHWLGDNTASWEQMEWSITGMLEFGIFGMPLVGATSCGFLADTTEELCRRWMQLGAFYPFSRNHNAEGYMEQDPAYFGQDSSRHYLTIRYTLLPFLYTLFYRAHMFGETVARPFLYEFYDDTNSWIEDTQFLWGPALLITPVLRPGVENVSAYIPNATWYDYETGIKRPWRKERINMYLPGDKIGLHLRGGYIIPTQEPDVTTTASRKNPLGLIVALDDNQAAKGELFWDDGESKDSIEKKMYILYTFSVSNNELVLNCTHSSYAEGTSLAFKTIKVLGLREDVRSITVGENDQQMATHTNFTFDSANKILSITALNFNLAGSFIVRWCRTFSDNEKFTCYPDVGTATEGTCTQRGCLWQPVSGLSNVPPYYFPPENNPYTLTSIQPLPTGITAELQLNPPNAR
T1 sequence (P23739 1014-1841 limits assumed): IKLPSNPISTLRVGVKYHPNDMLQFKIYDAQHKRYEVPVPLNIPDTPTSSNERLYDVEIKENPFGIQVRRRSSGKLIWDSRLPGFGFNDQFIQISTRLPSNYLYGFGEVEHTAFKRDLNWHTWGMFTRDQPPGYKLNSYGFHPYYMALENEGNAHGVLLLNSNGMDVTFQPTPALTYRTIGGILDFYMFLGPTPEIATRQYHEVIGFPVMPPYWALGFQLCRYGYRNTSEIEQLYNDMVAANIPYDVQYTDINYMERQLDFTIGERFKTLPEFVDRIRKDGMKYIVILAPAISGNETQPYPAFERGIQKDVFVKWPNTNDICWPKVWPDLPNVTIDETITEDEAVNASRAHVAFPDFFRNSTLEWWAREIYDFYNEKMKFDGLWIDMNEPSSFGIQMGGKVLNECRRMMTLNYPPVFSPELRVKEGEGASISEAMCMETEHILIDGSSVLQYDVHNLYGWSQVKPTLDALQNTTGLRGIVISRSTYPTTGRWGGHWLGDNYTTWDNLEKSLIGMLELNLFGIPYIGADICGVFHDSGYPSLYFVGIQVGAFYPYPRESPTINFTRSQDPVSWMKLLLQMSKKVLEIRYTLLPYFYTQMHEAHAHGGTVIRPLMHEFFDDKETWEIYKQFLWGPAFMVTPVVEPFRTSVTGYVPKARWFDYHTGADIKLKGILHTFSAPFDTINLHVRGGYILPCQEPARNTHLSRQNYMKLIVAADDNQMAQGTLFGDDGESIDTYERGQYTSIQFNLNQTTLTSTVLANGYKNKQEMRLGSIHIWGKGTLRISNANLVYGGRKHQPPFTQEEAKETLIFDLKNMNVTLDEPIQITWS

Prunus dulcis = experiment: Inhibition of almond beta glucosidase; details: concentration not given here
[3] = molecular target: Alpha-galactosidase (Coffea arabica) (UniProt Q5DUH8); experiment: Inhibition of green coffee bean alpha galactosidase; details: concentration not given here
Sequence of Alpha-galactosidase (Coffea arabica) (Q5DUH8 as listed by the source): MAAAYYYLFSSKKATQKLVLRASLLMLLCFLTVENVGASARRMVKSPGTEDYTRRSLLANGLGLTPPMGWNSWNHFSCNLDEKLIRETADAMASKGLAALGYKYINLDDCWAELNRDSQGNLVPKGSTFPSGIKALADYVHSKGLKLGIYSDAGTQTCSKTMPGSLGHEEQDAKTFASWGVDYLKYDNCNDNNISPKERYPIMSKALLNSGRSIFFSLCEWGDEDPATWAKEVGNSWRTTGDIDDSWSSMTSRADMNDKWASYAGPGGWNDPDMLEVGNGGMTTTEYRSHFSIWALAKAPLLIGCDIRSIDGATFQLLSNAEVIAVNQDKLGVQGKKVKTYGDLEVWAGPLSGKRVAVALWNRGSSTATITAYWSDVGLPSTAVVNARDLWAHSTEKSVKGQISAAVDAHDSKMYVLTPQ

[4] = molecular target: T2, Alpha-amylase (Sus scrofa domesticus) (UniProt Q7M328); experiment: Inhibition of pig pancreas alpha amylase; details: concentration not given here
T2 sequence (whole entry): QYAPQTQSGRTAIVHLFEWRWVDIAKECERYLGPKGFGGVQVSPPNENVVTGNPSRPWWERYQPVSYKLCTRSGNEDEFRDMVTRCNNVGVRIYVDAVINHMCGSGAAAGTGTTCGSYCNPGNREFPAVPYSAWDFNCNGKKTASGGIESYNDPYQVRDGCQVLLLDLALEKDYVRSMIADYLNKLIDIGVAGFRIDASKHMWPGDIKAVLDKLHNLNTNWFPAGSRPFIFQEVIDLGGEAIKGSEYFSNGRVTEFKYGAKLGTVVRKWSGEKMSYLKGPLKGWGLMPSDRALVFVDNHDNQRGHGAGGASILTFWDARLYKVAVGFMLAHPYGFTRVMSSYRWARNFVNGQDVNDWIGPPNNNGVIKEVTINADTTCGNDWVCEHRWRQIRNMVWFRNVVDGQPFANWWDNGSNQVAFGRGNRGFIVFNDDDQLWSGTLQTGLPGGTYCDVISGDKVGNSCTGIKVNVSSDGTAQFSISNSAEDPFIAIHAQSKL

[5] = molecular target: T3, Beta-galactosidase (Bos taurus) (UniProt Q58D55); experiment: Inhibition of bovine liver beta galactosidase; details: concentration not given here
T3 sequence (whole entry): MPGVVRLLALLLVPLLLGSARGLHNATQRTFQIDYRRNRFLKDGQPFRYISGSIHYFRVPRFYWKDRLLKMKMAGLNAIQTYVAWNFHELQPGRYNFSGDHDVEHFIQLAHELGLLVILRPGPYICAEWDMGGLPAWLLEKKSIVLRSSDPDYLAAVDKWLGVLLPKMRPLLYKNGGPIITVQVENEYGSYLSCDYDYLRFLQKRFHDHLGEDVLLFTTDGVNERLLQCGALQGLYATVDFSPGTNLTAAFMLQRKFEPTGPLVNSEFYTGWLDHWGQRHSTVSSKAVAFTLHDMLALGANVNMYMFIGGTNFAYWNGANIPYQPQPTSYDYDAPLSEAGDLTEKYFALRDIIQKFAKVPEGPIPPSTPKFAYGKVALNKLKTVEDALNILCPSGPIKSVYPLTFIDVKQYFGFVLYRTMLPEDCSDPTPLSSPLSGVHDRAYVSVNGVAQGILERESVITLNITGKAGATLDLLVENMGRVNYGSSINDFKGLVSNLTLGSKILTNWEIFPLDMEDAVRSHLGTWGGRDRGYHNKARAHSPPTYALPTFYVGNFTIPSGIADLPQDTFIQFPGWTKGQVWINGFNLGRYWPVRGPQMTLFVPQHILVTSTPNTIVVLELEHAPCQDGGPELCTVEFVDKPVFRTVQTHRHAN

Canavalia ensiformis = experiment: Inhibition of jack bean alpha mannosidase; details: concentration not given here
[6] = molecular target: Sucrase-isomaltase, intestinal (Rattus norvegicus) (UniProt P23739); experiment: Inhibition of rat intestinal sucrase at 500 uM
[7] = molecular target: T1, Sucrase-isomaltase, intestinal; experiment: Inhibition of sucrose hydrolyzing activity of rat intestinal alpha glucosidase

Sequence of Sucrase-isomaltase, intestinal (Rattus norvegicus) (P23739 1-1013 limits assumed): as the sequence (P23739 1-1013 limits assumed) above
Sequence of Sucrase-isomaltase, intestinal (Rattus norvegicus) (P23739 1014-1841 limits assumed): as the sequence (P23739 1014-1841 limits assumed) above

Structure (SMILES) | inhibition [1] [%] | pIC50 [2] | inhibition (Prunus dulcis) [%] | inhibition [3] [%] | inhibition [4] [%] | inhibition [5] [%] | inhibition (Canavalia ensiformis) [%] | inhibition [6] [%] | pKi [7]
Nc1c(O)cc2oc(-c3ccccc3)cc(=O)c2c1O | 32 | 5.62 | 19 | 6 | 12 | 10 | 7 |  | 
O=c1cc(-c2ccccc2)oc2cc(O)c(O)c(O)c12 [BAICALEIN] |  | 4.28 |  |  |  |  |  |  | 
N[C@H]1[C@H](O)CCC[C@@H]1O |  | < 3.30 |  |  |  |  |  | 10 | 
CC(=O)c1ccc(O)c(N)c1O |  | 5.44 | 7 | 10 | 15 | 5 | 4 |  | 
Nc1c(O)cccc1O |  | 5.38 | 12 | 8 | 11 | 4 | 3 |  | 5.38
Oc1cccc(O)c1O [PYROGALLOL] |  | < 3.30 |  |  |  |  |  | 42 | 
Nc1ccc(O)cc1O |  | < 3.30 |  |  |  |  |  | 46 | 
